Test results reported in article PMC4002258 (Biochimica et biophysica acta, 2013).
pEC50: −log10 of the molar value. Several values for one entry are separate records, joined by “and”; a condition that tells them apart may be missing. Equal values may be shown once.

Legend:
Assay type in all cases: biochemical
[1] = molecular target: human recombinant core 1 β1,3-Gal-transferase (C1GalT) (Homo sapiens, UniProt Q9NS00); experiment: C1GalT glycosyltransferase assay; details: for C1GalT activity (%): acceptor substrate 0.5 mM, 0.5 mM GalNAcα-Bn set to 100%
[2] = molecular target: T1, human recombinant core 3 β1,3-GlcNAc-transferase (C3GnT) (Homo sapiens, UniProt Q6ZMB0); experiment: C3GnT glycosyltransferase assay; details: for C3GnT activity (%): acceptor substrate 0.5 mM, 0.5 mM GalNAcα-Bn set to 100%
T1 sequence (Q6ZMB0 32-384 limits assumed): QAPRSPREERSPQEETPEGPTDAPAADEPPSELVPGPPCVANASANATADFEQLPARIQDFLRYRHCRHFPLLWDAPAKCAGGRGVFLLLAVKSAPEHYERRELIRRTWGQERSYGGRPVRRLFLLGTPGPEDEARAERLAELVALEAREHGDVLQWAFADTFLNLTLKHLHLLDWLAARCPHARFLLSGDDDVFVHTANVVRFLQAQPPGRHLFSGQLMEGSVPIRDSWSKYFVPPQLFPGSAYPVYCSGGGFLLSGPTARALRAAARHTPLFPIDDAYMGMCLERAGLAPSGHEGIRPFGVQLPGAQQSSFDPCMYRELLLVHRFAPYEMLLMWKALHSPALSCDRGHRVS

[3] = molecular target: T2, human recombinant core 2/4 β1,6-GlcNAc-transferase (C2GnT2) (Homo sapiens, UniProt O95395); details: for C2GnT2 activity (%): acceptor substrate 0.5 mM, 0.5 mM Galβ1–3GalNAcα-pnp set to 100%
T2 sequence (O95395 27-438): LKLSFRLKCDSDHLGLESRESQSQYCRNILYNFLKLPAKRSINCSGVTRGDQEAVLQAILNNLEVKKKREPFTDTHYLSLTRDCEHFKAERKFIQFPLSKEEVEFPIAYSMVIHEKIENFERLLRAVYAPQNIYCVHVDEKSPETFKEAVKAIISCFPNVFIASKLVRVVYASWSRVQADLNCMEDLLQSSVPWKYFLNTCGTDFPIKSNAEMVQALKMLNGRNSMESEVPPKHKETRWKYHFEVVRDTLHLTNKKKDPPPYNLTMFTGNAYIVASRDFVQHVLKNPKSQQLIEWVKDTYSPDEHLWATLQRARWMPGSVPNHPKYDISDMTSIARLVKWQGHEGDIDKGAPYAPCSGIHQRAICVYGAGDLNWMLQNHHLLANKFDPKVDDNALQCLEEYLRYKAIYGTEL

[4] = molecular target: T3, human recombinant core 2 β1,6-GlcNAc-transferase (C2GnT1) (Homo sapiens, UniProt Q02742); experiment: C2GnT1 glycosyltransferase assay; details: for C2GnT1 activity (%): acceptor substrate 0.5 mM, 0.5 mM Galβ1–3GalNAcα-pnp set to 100%
T3 sequence (Q02742 33-428 limits assumed): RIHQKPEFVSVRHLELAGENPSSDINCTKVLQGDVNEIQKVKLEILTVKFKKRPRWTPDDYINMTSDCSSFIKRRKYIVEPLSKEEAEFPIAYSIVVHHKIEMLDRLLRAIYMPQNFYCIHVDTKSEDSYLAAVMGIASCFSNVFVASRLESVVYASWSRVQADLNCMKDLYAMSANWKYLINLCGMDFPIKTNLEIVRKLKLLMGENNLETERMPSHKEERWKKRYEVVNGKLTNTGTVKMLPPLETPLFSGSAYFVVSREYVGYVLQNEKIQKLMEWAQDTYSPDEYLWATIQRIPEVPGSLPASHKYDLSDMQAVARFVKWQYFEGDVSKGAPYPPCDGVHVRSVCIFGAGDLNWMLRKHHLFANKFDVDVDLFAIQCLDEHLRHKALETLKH

Chain of human recombinant core 1 β1,3-Gal-transferase (C1GalT) (Q9NS00 30-363 limits assumed): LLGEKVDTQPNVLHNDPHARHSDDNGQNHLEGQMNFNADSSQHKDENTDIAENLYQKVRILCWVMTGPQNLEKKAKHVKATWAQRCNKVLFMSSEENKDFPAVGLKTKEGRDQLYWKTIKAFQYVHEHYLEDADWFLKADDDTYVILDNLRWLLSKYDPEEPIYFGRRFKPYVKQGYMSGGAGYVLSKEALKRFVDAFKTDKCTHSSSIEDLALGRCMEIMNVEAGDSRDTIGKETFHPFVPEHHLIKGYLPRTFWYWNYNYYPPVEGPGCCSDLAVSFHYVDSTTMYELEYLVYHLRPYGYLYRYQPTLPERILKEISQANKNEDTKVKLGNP

Compound | C1GalT activity (%) [1] | C3GnT activity (%) [2] | C2GnT2 activity (%) [3] | C2GnT1 activity (%) [4] | also measured
OC[C@H]1O[C@H](OCc2ccccc2)C[C@@H](O)[C@H]1O [2-Deoxy-Galα-Bn] | <1% | <1% | – | – | –
CCC(=O)N[C@H]1[C@@H](OCc2ccccc2)O[C@H](CO)[C@H](O)[C@@H]1O [2-N-Propionyl-GalNα-Bn] | 60% | 62% | – | – | –
CCO[C@H]1[C@@H](O)[C@@H](CO)O[C@H](OCc2ccccc2)[C@@H]1NC(C)=O [3-O-Ethyl-GalNAcα-Bn] | <1% | <1% | – | – | –
CCCO[C@H]1[C@@H](O)[C@@H](CO)O[C@H](OCc2ccccc2)[C@@H]1NC(C)=O [3-O-Propyl-GalNAcα-Bn] | <1% | <1% | – | – | –
CC(=O)N[C@H]1[C@@H](OCc2ccccc2)O[C@H](CO)C[C@@H]1O [4-Deoxy-GalNAcα-Bn] | <1% | <1% | – | – | –
CC(=O)N[C@H]1[C@@H](OCc2ccccc2)O[C@H](CO[C@@H]2O[C@H](CO)[C@@H](F)[C@H](O)[C@H]2NC(C)=O)[C@H](O)[C@@H]1O [4-F-4-Deoxy-GlcNAcβ1–6-GalNAcα-Bn] | 88% | <1% | – | – | –
CC(=O)N[C@H]1[C@@H](OCc2ccccc2)O[C@H](C)[C@H](O)[C@@H]1O [6-Deoxy-GalNAcα-Bn] | 68% | <1% | – | – | –
CC(=O)N[C@H]1[C@@H](OCc2ccccc2)O[C@H](COCCCC2CO2)[C@H](O)[C@@H]1O (some centres unmarked) [6-O-(4,5-Anhydro)pentyl-GalNAcα-Bn] | 191% | <1% | – | – | –
CC(=O)N[C@H]1C(O)O[C@H](CO)[C@H](O)[C@@H]1O (some centres unmarked) [GalNAc, reference compound] | 6% | <1% | – | – | –
CC(=O)NC1C(OP(=O)(O)OP(=O)(O)OCCCCCCCCCCCOc2ccccc2)OC(CO)C(O)C1O (centres unmarked) [GalNAcα-O-PO3-PO3-(CH2)11-O-Ph] | <1% | <1% | – | – | –
C=C(C)C1CC=C(CO[C@H]2O[C@H](CO)[C@H](O)[C@H](O)[C@H]2NC(C)=O)CC1 (some centres unmarked) [GalNAcα-perillyl] | 102% | 153% | – | – | Vmax ([2]; C3GnT, acceptor substrate): 0.4 µmol/h/mg and 0.40 µmol/h/mg; Km ([2]; C3GnT, apparent KM for acceptor substrate): 300 µM
CC(=O)N[C@H]1[C@@H](Oc2ccccc2)O[C@H](CO)[C@H](O)[C@@H]1O [GalNAcα-phenyl] | 181% | 37% | – | – | –
CC(=O)N[C@H]1[C@@H](Oc2ccc([N+](=O)[O-])cc2)O[C@H](CO)[C@H](O)[C@@H]1O [GalNAcα-pnp] | 204% | 88% | – | – | –
CC(=O)N[C@H]1[C@H](OCc2ccccc2)O[C@H](CO)[C@@H](O[C@@H]2O[C@H](CO)[C@H](O)[C@H](O)[C@H]2NC(C)=O)[C@@H]1O [GalNAcβ1–4GlcNAcβ-Bn] | <1% | <1% | – | – | –
CC(=O)N[C@H]1[C@H](OC[C@H]2O[C@H](Oc3ccccc3[N+](=O)[O-])[C@H](NC(C)=O)[C@@H](O)[C@H]2O)O[C@H](CO)[C@@H](O[C@@H]2O[C@H](CO)[C@H](O)[C@H](O)[C@H]2O)[C@@H]1O [Galβ1–4GlcNAcβ1–6GalNAcα-onp] | 38% | <1% | – | – | –
CC(=O)N[C@H]1[C@H](OC[C@H]2O[C@H](Oc3ccc4ccccc4c3)[C@H](O)[C@@H](O)[C@H]2O)O[C@H](CO)[C@@H](O[C@@H]2O[C@H](CO)[C@H](O)[C@H](O)[C@H]2O)[C@@H]1O [Galβ1–4GlcNAcβ1–6Galα-(2-naphthyl)] | <1% | <1% | – | – | –
CC(=O)N[C@H]1[C@@H](OCc2ccccc2)O[C@H](CO[C@@H]2O[C@H](CO)[C@@H](O[C@@H]3O[C@H](CO)[C@H](O)[C@H](O)[C@H]3O)[C@H](O)[C@H]2O)[C@H](O)[C@@H]1O [Galβ1–4Glcβ1–6GalNAcα-Bn] | 63% | <1% | – | – | –
CC(=O)N[C@H]1[C@@H](OCc2ccccc2)O[C@H](CO[C@@H]2O[C@H](CO)[C@H](O)[C@H](O)[C@H]2O)[C@H](O)[C@@H]1O [Galβ1–6GalNAcα-Bn] | 30% | <1% | – | – | –
[2H]C([2H])([2H])O[C@@H]1O[C@H](CO[C@@H]2O[C@H](CO)[C@@H](O)[C@H](O)[C@H]2NC(C)=O)[C@H](O)[C@H](O)[C@H]1O [GlcNAcβ1–6-Galβ-OCD3] | <1% | <1% | – | – | –
[Cl][Mn][Cl] [Mn^2+, MnCl2] | – | – | – | – | C1GalT activity with cofactor/additive ([1]; 12.5 mM metal ion or EDTA, Mn2+ taken as 100%): 100%; pEC50 ([1]; read-out: MnCl2 concentration for half-maximal C1GalT activity): 3.60; reduction of C2GnT2 activity ([3]; 12.5 mM in the assay, core 1 or core 3 substrates): 83–85%; reduction of C2GnT1 activity ([4]; 12.5 mM in the assay): 61%
A-(GalNAcα)T | – | 15% | – | – | –

Compound | C1GalT activity (%) [1] | C3GnT activity (%) [2] | C2GnT2 activity (%) [3] | C2GnT1 activity (%) [4] | also measured
Ac-GHA-(GalNAcα)TSLPVTG-NH2 | 564% | 22% | – | – | –
Ac-P-(Galβ1–3GalNAcα)TTTGIST-NH2 | – | – | <1% | 7% | –
Ac-P-(Galβ1–3GalNAcβ)TTTPIST-NH2 | – | – | 32% | 72% | –
Ac-PT-(Galβ1–3GalNAcα)TTGIST-NH2 | – | – | 6% | 49% | –
Ac-PT-(Galβ1–3GalNAcβ)TTPIST-NH2 | – | – | 15% | 43% | –
Ac-PTT-(Galβ1–3GalNAcα)TGIST-NH2 | – | – | <1% | 36% | –
Ac-V-(GalNAcα)TP-NH2 | 71% | 36% | – | – | –
T-(GalNAcα)TTVTPTPTG | 231% | – | – | – | –
T-(Galβ1–3GalNAcα)TTVTPTPTG | – | – | <1% | 11% | –
T-(GlcNAcβ1–3GalNAcα)TTVTPTPTG | – | – | <1% | <1% | –
TE-(GalNAcα)TTSHSTPG | 373% | – | – | – | –
TE-(GlcNAcβ1–3GalNAcα)TTSHSTPG | – | – | <1% | <1% | –
TE-(GlcNAcβ1–6GalNAcα)TTSHSTPG | <1% | – | <1% | <1% | –
TET-(GalNAcα)TSHSTPG | 210% | – | – | – | –
TET-(Galβ1–3GalNAcα)TSHSTPG | – | – | <1% | 27% | –
TET-(GlcNAcβ1–3GalNAcα)TSHSTPG | – | – | <1% | <1% | –
TETTSHS-(Galβ1–3GalNAcα)TPG | – | – | 7% | 70% | –
TETTSHS-(GlcNAcβ1–3GalNAcα)TPG | – | – | <1% | <1% | –
TT-(Galβ1–3GalNAcα)TVTP-(Galβ1–3GalNAcα)TPTG | – | – | <1% | 12% | –
TT-(Galβ1–3GalNAcα)TVTPTPTG | – | – | <1% | 13% | –
